“Also recorded” adds a separate entry of the source.
Columns and labels:
Type in all cases: binding
[1] = test system: human monoclonal antibody CRJA
[2] = test system: human monoclonal antibody CR57
[3] = test system: human monoclonal antibody CRJA; remark: listed apart in the source
[4] = test system: human monoclonal antibody CRJB
[5] = test system: human monoclonal antibody CR57; remark: listed apart in the source
[6] = test system: human monoclonal antibody CRJB; remark: listed apart in the source

Row | Sequence | Binding of CRJA to linear peptide (PEPSCAN-ELISA signal) [1] | Binding of CR57 to linear peptide (PEPSCAN-ELISA signal) [2] | Binding of CRJA (10 μg/ml) to looped/cyclic peptide (PEPSCAN-ELISA signal) [3] | Binding of CRJB (10 μg/ml) to looped/cyclic peptide (PEPSCAN-ELISA signal) [4] | Binding of CR57 (10 μg/ml) to looped/cyclic peptide (PEPSCAN-ELISA signal) [5] | Binding of CRJB to linear peptide (PEPSCAN-ELISA signal) [6] | Binding of CRJA (10 μg/ml) to looped/cyclic peptide (PEPSCAN-ELISA) [3] | Binding of CRJB (10 μg/ml) to looped/cyclic peptide (PEPSCAN-ELISA) [4] | Binding of CR57 (10 μg/ml) to looped/cyclic peptide (PEPSCAN-ELISA) [5] | further results
1 | CRAAYNWKMAGDPRY | 113 | 87 | 111 | 68 | 107 | 118 |  |  |  | 
2 | YTNFVGYVTTTFKRK | 76 | 51 | 72 | 90 | 71 | 104 |  |  |  | 
3 | QQHMELLESSVIPLV | 100 | 103 |  |  |  | 134 | 94 | 92 | 141 | 
4 | LKLCGVLGLRLMDGT | 100 | 918 |  |  |  | 145 | 90 | 72 | 89 | binding of antibody CR57 to linear peptide (PEPSCAN OD) [2]: bound
5 | RWLRTVKTTKESLVI | 72 | 40 | 71 | 75 | 77 | 110 |  |  |  | 
6 | FNKTLMEADAHYKSV | 86 | 111 |  |  |  | 141 | 101 | 129 | 124 | 
7 | ELLESSVIPLVHPLA | 85 | 90 |  |  |  | 133 | 73 | 88 | 112 | 
8 | TILDKLGPWSPIDIH | 84 | 76 | 86 | 60 | 85 | 96 |  |  |  | 
9 | NHDYTIWMPENPRLG | 108 | 71 | 123 | 186 | 170 | 119 |  |  |  | binding of antibody CRJB to looped/cyclic peptide (PEPSCAN OD) [4]: display reactivity; also recorded: clearly bound
10 | NYTNFVGYVTTTFKR | 97 | 49 | 85 | 88 | 58 | 114 |  |  |  | 
11 | STVFKDGDEAEDFVE |  |  |  |  |  |  |  |  |  | Binding of human monoclonal antibody CRJA to linear peptide (PEPSCAN-ELISA signal) [1]: 93; Binding of human monoclonal antibody CR57 to linear peptide (PEPSCAN-ELISA signal) [2]: 104; Binding of CRJA to looped/cyclic peptide (PEPSCAN-ELISA signal) [3]: 100; Binding of CRJB to looped/cyclic peptide (PEPSCAN-ELISA signal) [4]: 93; Binding of CR57 to looped/cyclic peptide (PEPSCAN-ELISA signal) [5]: 106; Binding of human monoclonal antibody CRJB to linear peptide (PEPSCAN-ELISA signal) [6]: 120
12 | VLIPEMQSSLLQQHM | 78 | 92 |  |  |  | 104 | 92 | 85 | 114 | 
13 | SFRRLSHLRKLVPGF | 75 | 92 |  |  |  | 110 | 320 | 87 | 143 | binding of antibody CRJA to looped/cyclic peptide (PEPSCAN OD) [3]: clearly bound
14 | SETCGFVDERGLYKS | 71 | 33 |  |  |  | 116 | 56 | 78 | 58 | 
15 | MELLESSVIPLVHPL | 83 | 90 |  |  |  | 125 | 94 | 100 | 115 | 
16 | MPENPRLGMSCDIFT | 107 | 105 | 111 | 87 | 107 | 121 |  |  |  | 
17 | IKMNGFTCTGVVTEA | 88 | 68 | 99 | 86 | 93 | 108 |  |  |  | 
18 | EDFVEVHLPDVHNQV |  |  |  |  |  |  |  |  |  | Binding of human monoclonal antibody CRJA to linear peptide (PEPSCAN-ELISA signal) [1]: 114; Binding of human monoclonal antibody CR57 to linear peptide (PEPSCAN-ELISA signal) [2]: 90; Binding of CRJA to looped/cyclic peptide (PEPSCAN-ELISA signal) [3]: 104; Binding of CRJB to looped/cyclic peptide (PEPSCAN-ELISA signal) [4]: 89; Binding of CR57 to looped/cyclic peptide (PEPSCAN-ELISA signal) [5]: 117; Binding of human monoclonal antibody CRJB to linear peptide (PEPSCAN-ELISA signal) [6]: 141
19 | KTLMEADAHYKSVRT | 102 | 91 |  |  |  | 98 | 92 | 97 | 125 | 
20 | KLGPWSPIDIHHLSC | 72 | 72 | 85 | 65 | 97 | 105 |  |  |  | 
21 | TVKTTKESLVIISPS | 93 | 76 | 92 | 55 | 94 | 116 |  |  |  | 
22 | GKCSGVAVSSTYCST | 103 | 92 | 97 | 74 | 79 | 143 |  |  |  | 
23 | NQVSGVDLGLPNWGK |  |  |  |  |  |  |  |  |  | Binding of human monoclonal antibody CRJA to linear peptide (PEPSCAN-ELISA signal) [1]: 103; Binding of human monoclonal antibody CR57 to linear peptide (PEPSCAN-ELISA signal) [2]: 78; Binding of CRJA to looped/cyclic peptide (PEPSCAN-ELISA signal) [3]: 79; Binding of CRJB to looped/cyclic peptide (PEPSCAN-ELISA signal) [4]: 128; Binding of CR57 to looped/cyclic peptide (PEPSCAN-ELISA signal) [5]: 84; Binding of human monoclonal antibody CRJB to linear peptide (PEPSCAN-ELISA signal) [6]: 138

From US20060263802A1 (priority 2003, published 2006)
